Experimental data: patent US10544156B2, “Hemi-synthetic trilobine analogs for use as a drug” (PIERRE FABRE MEDICAMENT, priority 2015, dated 2020)

What was measured:
[1] = target: T1, His-DNMT1 (182 kDa, human) (Homo sapiens, UniProt P26358); test: hDNMT1 assay ([methyl-3H] SAM Flashplate); assay type: biochemical; conditions: for inhibition at 10 µM: read-out: hDNMT 1 inhibition, Inhibition (%) 10 μM; for inhibition at 32 µM: read-out: hDNMT 1 inhibition, Inhibition (%) 32 μM
T1 construct: His; made in house
T1 sequence (P26358 whole entry): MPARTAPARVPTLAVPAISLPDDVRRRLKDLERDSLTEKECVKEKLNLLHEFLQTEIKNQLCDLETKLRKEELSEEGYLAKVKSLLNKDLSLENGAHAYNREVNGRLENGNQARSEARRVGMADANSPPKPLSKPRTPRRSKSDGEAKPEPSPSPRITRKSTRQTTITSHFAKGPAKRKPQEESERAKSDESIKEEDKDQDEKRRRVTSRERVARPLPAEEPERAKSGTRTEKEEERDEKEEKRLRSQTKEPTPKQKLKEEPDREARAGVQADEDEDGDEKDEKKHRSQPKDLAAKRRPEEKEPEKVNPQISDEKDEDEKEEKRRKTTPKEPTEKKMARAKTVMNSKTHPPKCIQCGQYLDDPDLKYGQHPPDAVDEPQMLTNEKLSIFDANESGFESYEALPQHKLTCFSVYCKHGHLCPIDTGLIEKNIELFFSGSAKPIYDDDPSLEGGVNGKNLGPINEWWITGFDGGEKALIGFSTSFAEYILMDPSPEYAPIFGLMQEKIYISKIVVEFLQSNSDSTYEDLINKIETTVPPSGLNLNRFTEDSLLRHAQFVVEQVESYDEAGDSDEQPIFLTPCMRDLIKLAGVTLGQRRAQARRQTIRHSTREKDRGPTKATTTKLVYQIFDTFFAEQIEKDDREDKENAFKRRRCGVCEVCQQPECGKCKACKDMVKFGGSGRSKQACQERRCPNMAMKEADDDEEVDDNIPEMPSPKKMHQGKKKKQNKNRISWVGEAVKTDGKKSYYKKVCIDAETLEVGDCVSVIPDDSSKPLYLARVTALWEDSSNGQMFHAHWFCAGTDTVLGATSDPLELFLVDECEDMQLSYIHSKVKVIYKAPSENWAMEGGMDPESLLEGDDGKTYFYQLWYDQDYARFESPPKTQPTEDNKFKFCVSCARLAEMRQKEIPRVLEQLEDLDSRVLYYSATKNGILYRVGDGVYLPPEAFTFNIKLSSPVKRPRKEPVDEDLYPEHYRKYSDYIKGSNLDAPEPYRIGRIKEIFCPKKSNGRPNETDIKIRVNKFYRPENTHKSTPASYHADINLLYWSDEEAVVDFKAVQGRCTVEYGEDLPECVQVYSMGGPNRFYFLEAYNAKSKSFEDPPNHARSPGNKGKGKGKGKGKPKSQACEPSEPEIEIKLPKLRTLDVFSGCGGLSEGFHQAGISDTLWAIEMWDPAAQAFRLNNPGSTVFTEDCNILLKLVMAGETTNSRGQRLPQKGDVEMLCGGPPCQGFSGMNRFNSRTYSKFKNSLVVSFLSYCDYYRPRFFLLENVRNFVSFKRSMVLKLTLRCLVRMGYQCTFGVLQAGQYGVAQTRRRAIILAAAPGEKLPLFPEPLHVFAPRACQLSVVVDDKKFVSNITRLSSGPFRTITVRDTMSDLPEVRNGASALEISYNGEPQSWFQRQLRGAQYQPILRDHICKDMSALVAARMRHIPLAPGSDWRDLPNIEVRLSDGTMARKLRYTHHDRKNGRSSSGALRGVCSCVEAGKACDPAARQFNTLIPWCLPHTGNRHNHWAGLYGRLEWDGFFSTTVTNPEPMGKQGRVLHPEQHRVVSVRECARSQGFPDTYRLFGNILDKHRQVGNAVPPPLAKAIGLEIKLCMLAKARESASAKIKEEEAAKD
Procedure: His-DNMT1 (182 kDa, human) was cloned, expressed and purified as described (Halby et al. Chem Bio Chem 2012, 13, 157-165). The reaction was performed in a 10 μL total reaction volume in low volume NBS™ 384-well microplates (Corning), containing the tested compound (up to 1% DMSO), 1 μM of a SAM/[methyl-^3H] SAM (3TBq/mmol, PerkinElmer) mix in a ratio of 3-to-1 (isotopic dilution 1*:3), 0.3 μM of biotinylated hemimethylated DNA duplex (5′-GATmCGCmCGATGmCGmCGAATmCGmCGATmCGATGmCGAT-3′ and BIOT-5′-[…]-3′), and 90 nM of DNMT1 in methylation buffer (20 mM HEPES pH 7.2, 1 mM EDTA, 50 mM KCl, 25 μg/mL BSA). The reaction was incubated at 37° C. for 2 hours. 8 μL are then transferred into a streptavidin 96-well scintillant coated Flashplate™ (PerkinElmer) containing 190 μL of 20 μM SAH in 50 mM Tris-HCl pH 7.4. The Flashplate™ was agitated at room temperature for 1 hour and read in 200 μL of 50 mM Tris-HCl pH 7.4 on TopCount NXT (PerkinElmer). The percentage of inhibition is reported. The formula used to calculate the percentage of inhibition is [(X−Y)/X]×100, where X is the signal determined in the absence of the inhibitor and Y is the signal obtained in the presence of the inhibitor.

[2] = test system: luciferase reporter gene under control of methylated CMV promoter in KG-1 cells; test: CMV-luc reexpression in KG-1 cells; assay type: cell-based, human; conditions: for Induction Fold (IF) of luciferase gene reporter in KG-1 CMV-Luc: 24 h, vs DMSO; for IF-24 h, KG1 CMV-Luc model: at 5 μM, 24 h (Table 5)
Procedure: KG-1 cells were stably transfected with the firefly luciferase reporter gene (luc+ from pGL3; Promega) under the control of the cytomegalovirus (CMV) promoter (from pEGFP-N1; Clontech Laboratories Inc.) partially methylated (50%). 20,000 cells per well were seeded in a 96-well plate. After 24 h incubation in the presence of the test compound or solvant (DMSO), the induction of the promoter was measured by quantification of the luciferase signal with the Brite-lite assay system (PerkinElmer) according to the manufacturer's protocol. The luminescence was measured on an EnVision multilabel plate reader (PerkinElmer), and the data are expressed as the fold induction as compared with the DMSO control. The mean of three experiments and the standard error is reported.

[3] = test system: P16 promoter in colon cancer cells HCT116; test: C5 DNA methylation analysis of CDKN2A (P16) promoter by COBRA; assay type: cell-based, human; conditions: at 0.1 μM
Procedure: Cancer cell lines (colon HCT116 or leukaemia KG1) were treated with the compounds as indicated in the Data Tables and then analysed as following.
DNA was isolated from cultured cells using the DNeasy Blood and Tissue Kit according to the manufacturer's specifications (Qiagen). DNA bisulphite conversion was performed on 2 μg of DNA using the EZ DNA Methylation-Gold Kit according to the manufacturer's specifications (Zymo Research) and bisulfited DNA was eluted with 10 μL of water.
Two different techniques were used to analyse the DNA methylation profile after bisulfite conversion of genomic DNA: (A) cloning and sequencing or (B) COBRA. The primers for each promoter are specified in Table 4.
This technique is a variation of bisulfite sequencing and combines bisulfite conversion based polymerase chain reaction with restriction digestion. DNA methylation levels are easily and quickly measured at fewer CpG sites than bisulfite-cloning-sequencing.
DNA amplification was set up with 100 ng eluted bisulfited DNA in 50 μL PCR reaction containing 1×PCR buffer, 2.5 mM MgCl2, 0.3 mM dNTPs, 400 nM each primer and 1.25 units EpiTaq HS (Takara) on C1000 Touch™ thermal cycler by 98° C. for 10 sec, 55° C. for 30 sec, 72° C. for 30 sec×40 cycles. 20 μL of PCR amplicons were digested in 30 μL by 2 units of BsiEI at 60° C. for 90 min. DNA fragments were migrated by 2% agarose gel electrophoresis and each band was quantified by Image Lab Software v2.0 (BioRad Laboratories).

[4] = test system: HCT116 (colorectal cancer); test: Anti-proliferative activity (ATPLite); assay type: cell-based; conditions: Homo sapiens, HCT-116; daily treatment, cell viability by ATPLite; read-out: Antiproliferative activity: IC50 (μM) HCT116 (colorectal cancer)
Procedure: (§1) To measure the anti-proliferative properties of tested molecules, 2×10^4 cells are seeded at day 0 in a 96 wells plate. The compounds to be tested, stored at −20° C. as 10^−2 M stock solution in 100% DMSO, are freshly diluted on day 1 in the cell medium, before adding a dose range of 3.2 nM to 10 μM to the cells. Cells are treated everyday and cell viability assessed after 3 days or 7 days of treatment. The cell viability is assessed using the ATPLite kit from Perkin (ATPlite 1 Step Luminescence Assay System, ref 3016739), following the provider instructions. The raw data are analyzed with GraphPad Prism software (v4.03) to generate IC50 values corresponding to the compound concentrations giving 50% reduction in cell viability. The values presented are the mean results of at least two independent experiments. The standard errors are indicated.

KG-1 (leukemia) = test: Anti-proliferative activity (ATPLite); assay type: cell-based; conditions: Homo sapiens; daily treatment, cell viability by ATPLite; read-out: Antiproliferative activity: IC50 (μM) KG-1 (leukemia)
Procedure: as §1

WM266-4 (melanoma) = test: Anti-proliferative activity (ATPLite); assay type: cell-based; conditions: Homo sapiens, WM 266-4; two treatments instead of three; cell viability by ATPLite; read-out: Antiproliferative activity: IC50 (μM) WM266-4 (melanoma)
Procedure: as §1

Compound | inhibition at 10 µM [1] [%] | inhibition at 32 µM [1] [%] | Induction Fold (IF) of luciferase gene reporter in KG-1 CMV-Luc ([2]; 0.1 μM) | Induction Fold (IF) of luciferase gene reporter in KG-1 CMV-Luc ([2]; 0.32 μM) | Induction Fold (IF) of luciferase gene reporter in KG-1 CMV-Luc ([2]; 1 μM) | Induction Fold (IF) of luciferase gene reporter in KG-1 CMV-Luc ([2]; 3.2 μM) | Induction Fold (IF) of luciferase gene reporter in KG-1 CMV-Luc ([2]; 5 μM) | Induction Fold (IF) of luciferase gene reporter in KG-1 CMV-Luc ([2]; 10 μM) | IF-24 h, KG1 CMV-Luc model [2] | Demethylation (COBRA) P16/HCT116 ([3]; after 7 days) | IC50 [4] [µM] | IC50 (KG-1 (leukemia)) [µM] | IC50 (WM266-4 (melanoma)) [µM] | Demethylation (COBRA) P16/HCT116 ([3]; after 3 days) [% after 3 days] | Demethylation (COBRA) P16/HCT116 ([3]; after 21 days) [% after 21 days] | EC50 ([1]; read-out: EC50 (μM), hDNMT 1 inhibition) [µM]
CNC(=O)N1CCc2cc(OC)c3c4c2[C@@H]1Cc1ccc(cc1)Oc1cc(ccc1OC)C[C@H]1c2cc(c(cc2CCN1C)O3)O4 [Product 44] | 0 | 15 | 1.1 ± 0.1 | 1.1 ± 0.1 | 1.3 ± 0.1 | 2.0 ± 0.1 | 2.5 ± 0.9 | 9.0 ± 1.3 | 5.9 ± 0.2 | 0% after 7 days (at 0.1 μM) | 1.88 ± 0.03 | 4.2 ± 0.05 | 12 ± 3 |  |  | 
COc1ccc2cc1Oc1ccc(cc1)C[C@@H]1NCCc3cc(OC)c4c(c31)Oc1cc3c(cc1O4)CCN(C)[C@H]3C2 [Trilobine (1), trilobine] | 4 |  | 1.1 ± 0.1 | 1.9 ± 1.2 | 2.6 ± 1.4 | 3.5 ± 1.1 | 6.4 ± 0.1 |  | 5.8 ± 0.6 | −52% after 7 days | 1.19 ± 0.02 | 2.1 ± 0.8 | 3.2 ± 0.8 | −37 | −53 | 
CCN(CC)CCCNC(=S)N1CCc2cc3c4cc2[C@@H]1Cc1ccc(OC)c(c1)Oc1ccc(cc1)C[C@H]1c2c(cc(OC)c(c2O4)O3)CCN1C(=S)NCCCN(CC)CC [Product 41] | 60 | 99 | 1.1 ± 0.1 | 1.1 ± 0.1 | 1.3 ± 0.1 | 2.0 ± 0.3 | 2.8 ± 0.2 | 3.1 ± 0.4 | 3.3 ± 0.1 | 0% after 7 days (at 0.1 μM) | 0.96 ± 0.02 | 5.3 ± 0.4 | 4.4 ± 1.5 |  |  | 11 ± 0.7
